We go through five compounds from PubChem BioAssay AID1259407 (Chemical Carcinogenesis Research Information System (CCRIS), 2018).

This series has as its system CCRIS mutagenicity, Ames/micronucleus/aberration tests. The series can be described thus: CCRIS mutagenicity studies.
Setting [1] is: Test System: AMES SALMONELLA TYPHIMURIUM, Strain/Indicator: TA98, Metabolic Activation: NONE, Method: PREINCUBATION
Where [2] appears, read: Test System: AMES SALMONELLA TYPHIMURIUM, Strain/Indicator: TA100, Metabolic Activation: NONE, Method: PREINCUBATION
The mark [3] stands for this setting: Test System: AMES SALMONELLA TYPHIMURIUM, Strain/Indicator: TA1535, Metabolic Activation: NONE, Method: PREINCUBATION

The source made the active and inactive calls. The rule behind the calls is not given here.

Consider `O=C(Cl)c1ccc(Cl)cc1`, for which the mutagenic call reads like this: under setting [1], “inactive; negative”; (Test System: AMES SALMONELLA TYPHIMURIUM, Strain/Indicator: TA98, Metabolic Activation: RAT LIVER S-9, PHENOBARBITAL AND BETA-NAPHTHOFLAVONE, Method: PREINCUBATION) “inactive; negative”; under setting [2], “inactive; negative”; (Test System: AMES SALMONELLA TYPHIMURIUM, Strain/Indicator: TA100, Metabolic Activation: RAT LIVER S-9, PHENOBARBITAL AND BETA-NAPHTHOFLAVONE, Method: PREINCUBATION) “inactive; negative”; (Test System: AMES SALMONELLA TYPHIMURIUM, Strain/Indicator: TA102, Metabolic Activation: NONE, Method: PREINCUBATION) “inactive; negative”; (Test System: AMES SALMONELLA TYPHIMURIUM, Strain/Indicator: TA102, Metabolic Activation: RAT LIVER S-9, PHENOBARBITAL AND BETA-NAPHTHOFLAVONE, Method: PREINCUBATION) “inactive; negative”. Moreover, the mutagenic call by setting is: (Test System: AMES SALMONELLA TYPHIMURIUM, Strain/Indicator: TA104, Metabolic Activation: NONE, Method: PREINCUBATION) “inactive; negative”; (Test System: AMES SALMONELLA TYPHIMURIUM, Strain/Indicator: TA104, Metabolic Activation: RAT LIVER S-9, PHENOBARBITAL AND BETA-NAPHTHOFLAVONE, Method: PREINCUBATION) “inactive; negative”; under setting [3], “inactive; negative”; (Test System: AMES SALMONELLA TYPHIMURIUM, Strain/Indicator: TA1535, Metabolic Activation: RAT LIVER S-9, PHENOBARBITAL AND BETA-NAPHTHOFLAVONE, Method: PREINCUBATION) “inactive; negative”; (Test System: AMES SALMONELLA TYPHIMURIUM, Strain/Indicator: TA1537, Metabolic Activation: NONE, Method: PREINCUBATION) “inactive; negative”; (Test System: AMES SALMONELLA TYPHIMURIUM, Strain/Indicator: TA1537, Metabolic Activation: RAT LIVER S-9, PHENOBARBITAL AND BETA-NAPHTHOFLAVONE, Method: PREINCUBATION) “inactive; negative”. Besides, the mutagenic call is “inactive; negative” (Test System: E.COLI, Strain/Indicator: WP2UVRA/PKM101, Metabolic Activation: NONE, Method: PREINCUBATION); “inactive; negative” (Test System: E.COLI, Strain/Indicator: WP2UVRA/PKM101, Metabolic Activation: RAT LIVER S-9, PHENOBARBITAL AND BETA-NAPHTHOFLAVONE, Method: PREINCUBATION); “inactive; negative” (Test System: E.COLI, Strain/Indicator: WP2UVRA, Metabolic Activation: NONE, Method: PREINCUBATION); “inactive; negative” (Test System: E.COLI, Strain/Indicator: WP2UVRA, Metabolic Activation: RAT LIVER S-9, PHENOBARBITAL AND BETA-NAPHTHOFLAVONE, Method: PREINCUBATION).
Regarding `CN(C)CCn1cc[n+](C)c1/C=N/O`, the mutagenic call runs as follows: (Test System: AMES SALMONELLA TYPHIMURIUM, Strain/Indicator: TA97, Metabolic Activation: NONE, Method: STANDARD PLATE) “inactive; negative”; (Test System: AMES SALMONELLA TYPHIMURIUM, Strain/Indicator: TA97, Metabolic Activation: S-9, Method: STANDARD PLATE) “inactive; negative”; (Test System: AMES SALMONELLA TYPHIMURIUM, Strain/Indicator: TA100, Metabolic Activation: NONE, Method: STANDARD PLATE) “inactive; negative”; (Test System: AMES SALMONELLA TYPHIMURIUM, Strain/Indicator: TA100, Metabolic Activation: S-9, Method: STANDARD PLATE) “inactive; negative”; (Test System: AMES SALMONELLA TYPHIMURIUM, Strain/Indicator: TA104, Metabolic Activation: NONE, Method: STANDARD PLATE) “inactive; negative”; (Test System: AMES SALMONELLA TYPHIMURIUM, Strain/Indicator: TA104, Metabolic Activation: S-9, Method: STANDARD PLATE) “inactive; negative”. The mutagenic call reads like this: (Test System: AMES SALMONELLA TYPHIMURIUM, Strain/Indicator: TA1537, Metabolic Activation: NONE, Method: STANDARD PLATE) “inactive; negative”; (Test System: AMES SALMONELLA TYPHIMURIUM, Strain/Indicator: TA1537, Metabolic Activation: S-9, Method: STANDARD PLATE) “inactive; negative”; (Test System: AMES SALMONELLA TYPHIMURIUM, Strain/Indicator: TA1538, Metabolic Activation: NONE, Method: STANDARD PLATE) “inactive; negative”; (Test System: AMES SALMONELLA TYPHIMURIUM, Strain/Indicator: TA1538, Metabolic Activation: S-9, Method: STANDARD PLATE) “inactive; negative”.
`Cl[C@@H]1C2(Cl)C3C4[C@@H]5O[C@@H]5[C@H]5C3[C@@](Cl)(C2(Cl)Cl)[C@]1(Cl)[C@@H]45` (some centres not stated): the mutagenic call reads like this: (Test System: AMES SALMONELLA TYPHIMURIUM, Strain/Indicator: TA97, Metabolic Activation: HAMSTER, LIVER, S-9, AROCLOR 1254 (10%), Method: PREINCUBATION) “inactive; negative”; (Test System: AMES SALMONELLA TYPHIMURIUM, Strain/Indicator: TA97, Metabolic Activation: HAMSTER, LIVER, S-9, AROCLOR 1254 (30%), Method: PREINCUBATION) “active; positive”; (Test System: AMES SALMONELLA TYPHIMURIUM, Strain/Indicator: TA97, Metabolic Activation: NONE, Method: PREINCUBATION) “inactive; negative”; (Test System: AMES SALMONELLA TYPHIMURIUM, Strain/Indicator: TA97, Metabolic Activation: RAT, LIVER, S-9, AROCLOR 1254 (10 OR 30%), Method: PREINCUBATION) “inactive; negative”; (Test System: AMES SALMONELLA TYPHIMURIUM, Strain/Indicator: TA98, Metabolic Activation: HAMSTER, LIVER, S-9, AROCLOR 1254 (10 OR 30%), Method: PREINCUBATION) “inactive; negative”; under setting [1], “inactive; negative”. The mutagenic call (Test System: AMES SALMONELLA TYPHIMURIUM, Strain/Indicator: TA98, Metabolic Activation: RAT, LIVER, S-9, AROCLOR 1254 (10 OR 30%), Method: PREINCUBATION) is “inactive; negative”; the mutagenic call (Test System: AMES SALMONELLA TYPHIMURIUM, Strain/Indicator: TA100, Metabolic Activation: HAMSTER, LIVER, S-9, AROCLOR 1254 (10 OR 30%), Method: PREINCUBATION) was “inactive; negative”; the mutagenic call under setting [2] was “inactive; negative”; the mutagenic call (Test System: AMES SALMONELLA TYPHIMURIUM, Strain/Indicator: TA100, Metabolic Activation: RAT, LIVER, S-9, AROCLOR 1254 (10 OR 30%), Method: PREINCUBATION) was “inactive; negative”; the mutagenic call (Test System: AMES SALMONELLA TYPHIMURIUM, Strain/Indicator: TA1535, Metabolic Activation: HAMSTER, LIVER, S-9, AROCLOR 1254 (10 OR 30%), Method: PREINCUBATION) was “inactive; negative”; the mutagenic call under setting [3] is “inactive; negative”. In addition, under “Test System: AMES SALMONELLA TYPHIMURIUM, Strain/Indicator: TA1535, Metabolic Activation: RAT, LIVER, S-9, AROCLOR 1254 (10 OR 30%), Method: PREINCUBATION”, the mutagenic call was “inactive; negative”.
For `Cc1ccc(Nc2ccc([N+](=O)[O-])cc2)cc1`, the mutagenic call by setting is: (Test System: AMES SALMONELLA TYPHIMURIUM, Strain/Indicator: TA98(NR), Metabolic Activation: NONE, Method: PREINCUBATION) “inactive; negative”; under setting [1], “active; positive”; (Test System: AMES SALMONELLA TYPHIMURIUM, Strain/Indicator: TA98, Metabolic Activation: RAT, LIVER, S-9, AROCLOR 1254, Method: PREINCUBATION) “active; positive”.
As to `CC(=O)c1ccc2c(c1)C(=O)C1(CC1)O2`, the mutagenic call by setting is: (Test System: AMES SALMONELLA TYPHIMURIUM, Strain/Indicator: TA98, Metabolic Activation: NONE) “inactive; negative”; (Test System: AMES SALMONELLA TYPHIMURIUM, Strain/Indicator: TA98, Metabolic Activation: S-9) “inactive; negative”; (Test System: AMES SALMONELLA TYPHIMURIUM, Strain/Indicator: TA100, Metabolic Activation: NONE) “inactive; negative”; (Test System: AMES SALMONELLA TYPHIMURIUM, Strain/Indicator: TA100, Metabolic Activation: S-9) “inactive; negative”; (Test System: AMES SALMONELLA TYPHIMURIUM, Strain/Indicator: TA1535, Metabolic Activation: NONE) “inactive; negative”; (Test System: AMES SALMONELLA TYPHIMURIUM, Strain/Indicator: TA1535, Metabolic Activation: S-9) “inactive; negative”. Besides, the mutagenic call (Test System: AMES SALMONELLA TYPHIMURIUM, Strain/Indicator: TA1537, Metabolic Activation: NONE) was “inactive; negative”; the mutagenic call (Test System: AMES SALMONELLA TYPHIMURIUM, Strain/Indicator: TA1537, Metabolic Activation: S-9) was “inactive; negative”; the mutagenic call (Test System: E. COLI, Strain/Indicator: WP2 (HCR), Metabolic Activation: NONE) is “inactive; negative”; the mutagenic call (Test System: E. COLI, Strain/Indicator: WP2 (HCR), Metabolic Activation: S-9) was “inactive; negative”.
